# Assays:
# TH receptor = test: Receptor binding assay, TH; settings: rat liver, compound A at 10 μM, [125I] T3 (0.1 nM), 18 h/4° C.
# Experimental: (§1) The compound A was tested for ability to bind to 21 types of receptors. […]
# (§2) The inhibition rate of the compound A for each radioligand was calculated by the following equation. 100−([measured specific binding]/[control specific binding]×100) Equation: […]
# (§3) In the equation, the measured specific binding indicates the amount of binding radioactivity of each radioligand under the presence of the compound A and the corresponding reference compound, and the control specific binding indicates the amount of binding radioactivity of each radioligand under the presence of the corresponding reference compound.
# GABAB receptor = biological target: T1, GABAB receptor (Rattus norvegicus, UniProt Q9Z0U4); test: Receptor binding assay, GABAB; settings: rat cerebral cortex, compound A at 10 μM, [3H] GABA (+40 μM isoguvacine) (10 nM), 10 min./22° C., read-out: Inhibition rate of compound A for radioligand (%)
# T1 construct: rat cerebral cortex; from tissue; host or cells: rat cerebral cortex
# Experimental: as §1, §2, §3
# [1] = system: σ (non-selective) receptor; test: Receptor binding assay, σ (non-selective); settings: rat cerebral cortex, compound A at 10 μM, [3H] DTG (8 nM), 120 min./22° C.
# Experimental: as §1, §2, §3
# H1 (h) receptor = biological target: T2, H1 (h) receptor (Homo sapiens, UniProt P35367); test: Receptor binding assay, H1 (h); settings: human recombinant (HEK-293 cells), compound A at 10 μM, [3H] pyrilamine (3 nM), 60 min./22° C., read-out: Inhibition rate of compound A for radioligand (%)
# T2 construct: expressed in transfected cells; host or cells: HEK-293 cells
# T2 sequence (P35367 whole entry): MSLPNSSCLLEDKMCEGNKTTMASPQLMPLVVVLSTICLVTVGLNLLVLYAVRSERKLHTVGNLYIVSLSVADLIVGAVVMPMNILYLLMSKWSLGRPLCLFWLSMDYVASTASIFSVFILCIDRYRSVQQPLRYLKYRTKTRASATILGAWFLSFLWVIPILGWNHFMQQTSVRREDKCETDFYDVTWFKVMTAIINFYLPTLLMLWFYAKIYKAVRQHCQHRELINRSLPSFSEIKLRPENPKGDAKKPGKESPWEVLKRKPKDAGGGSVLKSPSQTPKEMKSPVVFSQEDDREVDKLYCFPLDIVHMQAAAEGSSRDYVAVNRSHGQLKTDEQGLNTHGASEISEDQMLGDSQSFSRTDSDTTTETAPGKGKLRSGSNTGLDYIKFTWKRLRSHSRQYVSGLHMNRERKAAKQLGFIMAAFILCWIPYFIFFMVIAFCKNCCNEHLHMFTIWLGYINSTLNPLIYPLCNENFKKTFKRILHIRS
# Experimental: as §1, §2, §3
# [2] = biological target: T3, sigma-2 receptors expressed in Jurkat cells (Homo sapiens, UniProt Q5BJF2); test: Identification of sigma-2 receptor inhibition constant; type: binding; settings: 25 nM [3H] DTG under the presence of 1 μM (+)-pentazocine, room temperature for 60 minutes, Cheng-Prusoff equation
# T3 construct: In the sigma-2 receptors expressed in Jurkat cells; endogenous in cells; host or cells: Jurkat cells
# T3 sequence (Q5BJF2 whole entry): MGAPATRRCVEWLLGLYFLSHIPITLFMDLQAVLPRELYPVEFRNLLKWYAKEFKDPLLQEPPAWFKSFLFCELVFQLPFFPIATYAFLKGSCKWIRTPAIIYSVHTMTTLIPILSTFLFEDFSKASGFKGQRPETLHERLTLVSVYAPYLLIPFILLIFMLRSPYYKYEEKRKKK
# Experimental: The sigma-2 receptor inhibition constant of the compound A (Ki value) was identified. The test was conducted by a method described below in accordance with Ganapathy, M. E. (1999).
# DTG under the presence of 1 μM (+)-pentazocine. The reaction was conducted at room temperature for 60 minutes. The inhibition rate was calculated in the same manner as described in Test Example 1. The Ki value was identified in accordance with the Cheng-Prusoff equation by calculating IC50 based on nonlinear regression analysis.
# AT1 (h) receptor = biological target: T4, AT1 (h) receptor (Homo sapiens, UniProt P30556); test: Receptor binding assay, AT1 (h); settings: human recombinant (CHO cells), compound A at 10 μM, [125I] [Sar1, Ile5]-AT II (0.05 nM), 60 min./37° C., read-out: Inhibition rate of compound A for radioligand (%)
# T4 construct: expressed in transfected cells; host or cells: CHO cells
# T4 sequence (P30556 whole entry): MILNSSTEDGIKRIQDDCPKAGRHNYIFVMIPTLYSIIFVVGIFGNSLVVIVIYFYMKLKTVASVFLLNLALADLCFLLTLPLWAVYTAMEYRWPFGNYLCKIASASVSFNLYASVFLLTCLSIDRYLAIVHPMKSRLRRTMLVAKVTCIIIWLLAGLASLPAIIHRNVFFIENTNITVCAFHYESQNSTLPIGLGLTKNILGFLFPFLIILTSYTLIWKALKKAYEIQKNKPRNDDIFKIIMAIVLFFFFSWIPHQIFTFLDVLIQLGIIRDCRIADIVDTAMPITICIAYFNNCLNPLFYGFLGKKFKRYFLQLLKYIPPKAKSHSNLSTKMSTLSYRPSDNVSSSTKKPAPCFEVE
# Experimental: as §1, §2, §3
# AT2 (h) receptor = biological target: T5, AT2 (h) receptor (Homo sapiens, UniProt P50052); test: Receptor binding assay, AT2 (h); settings: human recombinant (Hela cells), compound A at 10 μM, [3H] GCP 42112A (0.05 nM), 180 min./37° C., read-out: Inhibition rate of compound A for radioligand (%)
# T5 construct: expressed in transfected cells; host or cells: Hela cells
# T5 sequence (P50052 whole entry): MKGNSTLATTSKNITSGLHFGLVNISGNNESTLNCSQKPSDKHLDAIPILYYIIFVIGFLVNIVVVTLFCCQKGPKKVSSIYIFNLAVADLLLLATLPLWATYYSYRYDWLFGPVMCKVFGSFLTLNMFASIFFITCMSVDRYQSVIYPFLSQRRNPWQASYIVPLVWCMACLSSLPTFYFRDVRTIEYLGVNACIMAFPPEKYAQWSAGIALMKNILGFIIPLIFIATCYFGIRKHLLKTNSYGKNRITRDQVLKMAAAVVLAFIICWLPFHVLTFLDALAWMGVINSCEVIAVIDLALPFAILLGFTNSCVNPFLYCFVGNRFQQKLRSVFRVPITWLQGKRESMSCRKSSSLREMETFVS
# Experimental: as §1, §2, §3
# [3] = system: α1 (non-selective) receptor; test: Receptor binding assay, α1 (non-selective); settings: rat cerebral cortex, compound A at 10 μM, [3H] prazosin (0.25 nM), 60 min./22° C
# Experimental: as §1, §2, §3
# H2 receptor = biological target: T6, H2 receptor (Cavia porcellus, UniProt P47747); test: Receptor binding assay, H2; settings: guinea-pig striatum, compound A at 10 μM, [3H] APT (0.1 nM), 150 min/22° C., read-out: Inhibition rate of compound A for radioligand (%)
# T6 construct: guinea-pig striatum; from tissue; host or cells: guinea-pig striatum
# T6 sequence (P47747 whole entry): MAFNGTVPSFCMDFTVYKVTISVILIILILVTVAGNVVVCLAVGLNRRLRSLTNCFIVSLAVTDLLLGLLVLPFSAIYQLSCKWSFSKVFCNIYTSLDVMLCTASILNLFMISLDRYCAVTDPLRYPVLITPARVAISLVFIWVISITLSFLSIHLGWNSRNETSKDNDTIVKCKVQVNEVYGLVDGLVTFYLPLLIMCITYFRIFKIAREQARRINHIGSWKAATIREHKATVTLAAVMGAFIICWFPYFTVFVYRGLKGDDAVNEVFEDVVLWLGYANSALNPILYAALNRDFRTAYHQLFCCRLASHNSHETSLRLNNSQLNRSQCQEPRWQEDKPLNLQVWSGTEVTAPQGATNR
# Experimental: as §1, §2, §3
# [4] = system: N (neuronal) (α-BGTX-insensitive) receptor; test: Receptor binding assay, N (neuronal) (α-BGTX-insensitive); settings: rat cerebral cortex, compound A at 10 μM, [3H] cytisine (1.5 nM), 75 min./4° C.
# Experimental: as §1, §2, §3
# M2 (h) receptor = biological target: T7, M2 (h) receptor (Homo sapiens, UniProt P08172); test: Receptor binding assay, M2 (h); settings: human recombinant (CHO cells), compound A at 10 μM, [3H] AF-DX 384 (2 nM), 60 min./22° C.
# T7 construct: expressed in transfected cells; host or cells: CHO cells
# T7 sequence (P08172 whole entry): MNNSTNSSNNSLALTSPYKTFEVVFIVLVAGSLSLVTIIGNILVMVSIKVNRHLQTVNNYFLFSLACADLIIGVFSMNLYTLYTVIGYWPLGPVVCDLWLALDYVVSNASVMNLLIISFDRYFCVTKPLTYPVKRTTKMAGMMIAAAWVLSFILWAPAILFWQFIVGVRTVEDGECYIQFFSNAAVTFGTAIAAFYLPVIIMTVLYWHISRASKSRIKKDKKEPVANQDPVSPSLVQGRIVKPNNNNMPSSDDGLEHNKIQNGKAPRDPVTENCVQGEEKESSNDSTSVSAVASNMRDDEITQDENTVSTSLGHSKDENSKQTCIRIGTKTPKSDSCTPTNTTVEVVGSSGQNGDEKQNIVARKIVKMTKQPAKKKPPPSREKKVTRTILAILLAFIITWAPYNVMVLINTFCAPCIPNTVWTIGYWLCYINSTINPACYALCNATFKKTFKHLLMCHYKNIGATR
# Experimental: as §1, §2, §3
# D2 receptor = biological target: T8, D2 receptor (Rattus norvegicus, UniProt P61169); test: Receptor binding assay, D2; settings: rat striatum, compound A at 10 μM, [3H] YM-09151-2 (0.1 nM), 60 min./22° C.
# T8 construct: rat striatum; from tissue; host or cells: rat striatum
# T8 sequence (P61169 whole entry): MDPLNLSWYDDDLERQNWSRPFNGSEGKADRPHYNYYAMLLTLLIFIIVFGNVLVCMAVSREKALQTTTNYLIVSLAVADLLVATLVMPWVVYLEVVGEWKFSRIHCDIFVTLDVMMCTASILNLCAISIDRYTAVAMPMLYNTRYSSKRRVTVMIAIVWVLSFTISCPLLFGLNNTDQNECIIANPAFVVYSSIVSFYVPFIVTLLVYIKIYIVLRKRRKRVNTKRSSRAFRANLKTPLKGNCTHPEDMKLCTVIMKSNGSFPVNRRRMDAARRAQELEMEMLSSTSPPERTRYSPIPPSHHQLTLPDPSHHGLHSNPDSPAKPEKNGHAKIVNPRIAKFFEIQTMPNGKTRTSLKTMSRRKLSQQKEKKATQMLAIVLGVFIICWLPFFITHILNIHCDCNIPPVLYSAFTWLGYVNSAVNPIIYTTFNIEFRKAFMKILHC
# Experimental: as §1, §2, §3
# β2 receptor = biological target: T9, β2 receptor (Cavia porcellus, UniProt Q8K4Z4); test: Receptor binding assay, β2; settings: guinea-pig lung, compound A at 10 μM, [3H] (−)CGP 12177 (+10 nM CGP 20712A) (0.4 nM), 40 min./22° C., read-out: Inhibition rate of compound A for radioligand (%)
# T9 construct: guinea-pig lung; from tissue; host or cells: guinea-pig lung
# T9 sequence (Q8K4Z4 whole entry): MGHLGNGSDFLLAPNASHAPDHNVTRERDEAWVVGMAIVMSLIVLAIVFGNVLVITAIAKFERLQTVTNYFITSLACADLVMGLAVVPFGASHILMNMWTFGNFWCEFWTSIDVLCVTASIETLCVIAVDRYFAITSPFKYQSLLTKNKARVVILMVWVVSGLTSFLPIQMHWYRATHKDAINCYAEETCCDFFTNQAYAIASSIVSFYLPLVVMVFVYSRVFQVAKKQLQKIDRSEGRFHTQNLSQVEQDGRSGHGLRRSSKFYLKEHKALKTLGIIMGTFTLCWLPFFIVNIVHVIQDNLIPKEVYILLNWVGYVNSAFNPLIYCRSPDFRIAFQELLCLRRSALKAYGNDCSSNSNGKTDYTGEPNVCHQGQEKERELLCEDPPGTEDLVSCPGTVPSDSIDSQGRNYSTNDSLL
# Experimental: as §1, §2, §3
# [5] = system: 5-HT (non-selective) receptor; test: Receptor binding assay, 5-HT (non-selective); settings: rat cerebral cortex, compound A at 10 μM, [3H] serotonin (2 nM), 15 min./37° C.
# Experimental: as §1, §2, §3
# GABAA receptor = test: Receptor binding assay, GABAA; settings: rat cerebral cortex, compound A at 10 μM, [3H] muscimol (5 nM), 10 min./4° C.
# Experimental: as §1, §2, §3
# BZD (central) receptor = test: Receptor binding assay, BZD (central); settings: rat cerebral cortex, compound A at 10 μM, [3H] flunitrazepam (0.4 nM), 60 min./4° C.
# Experimental: as §1, §2, §3
# [6] = biological target: T10, sigma-1 receptors expressed in Jurkat cells (Homo sapiens, UniProt Q99720); test: Identification of sigma-1 receptor inhibition constant; type: binding; settings: 15 nM [3H] (+)-pentazocine, 37° C. for 120 minutes, Cheng-Prusoff equation
# T10 construct: In the sigma-1 receptors expressed in Jurkat cells; endogenous in cells; host or cells: Jurkat cells
# T10 sequence (Q99720 whole entry): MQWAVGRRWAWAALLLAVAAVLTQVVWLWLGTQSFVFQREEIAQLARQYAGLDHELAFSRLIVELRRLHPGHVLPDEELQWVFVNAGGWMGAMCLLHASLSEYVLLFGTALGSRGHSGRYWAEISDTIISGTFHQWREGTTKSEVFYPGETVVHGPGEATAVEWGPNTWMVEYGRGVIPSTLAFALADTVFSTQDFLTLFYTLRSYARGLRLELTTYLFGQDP
# Experimental: The sigma-1 receptor inhibition constant of the compound A (Ki value) was identified. The test was conducted by a method described below in accordance with Ganapathy, M. E. (1999).
# (+)-pentazocine. The reaction was conducted at 37° C. for 120 minutes. The inhibition rate was calculated in the same manner as described in Test Example 1. The Ki value was identified in accordance with the Cheng-Prusoff equation by calculating IC50 based on nonlinear regression analysis.
# NMDA receptor = test: Receptor binding assay, NMDA; settings: rat cerebral cortex, compound A at 10 μM, [3H] CGP 39653 (5 nM), 60 min./4° C.
# Experimental: as §1, §2, §3
# [7] = system: α2 (non-selective) receptor; test: Receptor binding assay, α2 (non-selective); settings: rat cerebral cortex, compound A at 10 μM, [3H] RX 821002 (0.5 nM), 30 min./22° C.
# Experimental: as §1, §2, §3
# TRH receptor = test: Receptor binding assay, TRH; settings: rat cerebral cortex, compound A at 10 μM, [3H] Me-TRH (2 nM), 6 h/4° C.
# Experimental: as §1, §2, §3
# M1 receptor = biological target: T11, M1 receptor (Rattus norvegicus, UniProt P08482); test: Receptor binding assay, M1; settings: rat cerebral cortex, compound A at 10 μM, [3H] pirenzepine (1 nM), 60 min./22° C., read-out: Inhibition rate of compound A for radioligand (%)
# T11 construct: rat cerebral cortex; from tissue; host or cells: rat cerebral cortex
# T11 sequence (P08482 whole entry): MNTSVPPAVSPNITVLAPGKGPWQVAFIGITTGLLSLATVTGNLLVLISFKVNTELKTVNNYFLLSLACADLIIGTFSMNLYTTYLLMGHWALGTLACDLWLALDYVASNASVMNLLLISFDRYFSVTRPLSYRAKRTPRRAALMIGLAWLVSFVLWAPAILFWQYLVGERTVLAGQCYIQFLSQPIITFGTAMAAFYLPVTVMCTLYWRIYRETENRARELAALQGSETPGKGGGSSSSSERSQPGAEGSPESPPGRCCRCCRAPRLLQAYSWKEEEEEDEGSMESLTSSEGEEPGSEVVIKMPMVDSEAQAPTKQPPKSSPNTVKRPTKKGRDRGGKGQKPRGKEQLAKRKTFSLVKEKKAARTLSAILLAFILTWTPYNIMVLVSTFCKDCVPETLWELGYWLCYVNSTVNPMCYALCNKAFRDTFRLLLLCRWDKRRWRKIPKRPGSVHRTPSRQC
# Experimental: as §1, §2, §3
# D1 receptor = biological target: T12, D1 receptor (Rattus norvegicus, UniProt P18901); test: Receptor binding assay, D1; settings: rat striatum, compound A at 10 μM, [3H] SCH 23390 (0.3 nM), 45 min./22° C.
# T12 construct: rat striatum; from tissue; host or cells: rat striatum
# T12 sequence (P18901 whole entry): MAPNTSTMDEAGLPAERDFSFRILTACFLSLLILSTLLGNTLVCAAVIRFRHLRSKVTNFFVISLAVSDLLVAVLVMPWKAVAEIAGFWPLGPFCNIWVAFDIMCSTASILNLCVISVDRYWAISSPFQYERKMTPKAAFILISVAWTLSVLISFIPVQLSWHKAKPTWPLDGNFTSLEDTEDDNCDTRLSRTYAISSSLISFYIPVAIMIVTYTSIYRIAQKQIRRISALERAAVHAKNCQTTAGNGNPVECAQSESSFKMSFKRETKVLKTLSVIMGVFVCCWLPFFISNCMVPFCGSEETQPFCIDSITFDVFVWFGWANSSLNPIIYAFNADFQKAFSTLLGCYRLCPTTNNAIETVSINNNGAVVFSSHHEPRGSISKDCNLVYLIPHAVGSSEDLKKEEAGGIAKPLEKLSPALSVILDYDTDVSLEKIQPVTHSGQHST
# Experimental: as §1, §2, §3
smiles,measurement,setting,value
"O=C(O)/C=C\C(=O)O.OC1CN(CCCOCCc2ccc3sccc3c2)C1 [compound A, 1-(3-(2-(1-benzothiophene-5-yl)ethoxy)propyl)azetidine-3-ol maleate]",Inhibition rate of compound A for radioligand (%),TH receptor,−5%
same,inhibition at 10 µM,GABAB receptor,4%
same,Inhibition rate of compound A for radioligand (%),[1],99%
same,inhibition at 10 µM,H1 (h) receptor,-15%
same,Ki,[2],160 nM
same,inhibition at 10 µM,AT1 (h) receptor,-2%
same,inhibition at 10 µM,AT2 (h) receptor,-13%
same,Inhibition rate of compound A for radioligand (%),[3],36%
same,inhibition at 10 µM,H2 receptor,72%
same,Inhibition rate of compound A for radioligand (%),[4],12%
same,Inhibition rate of compound A for radioligand (%),M2 (h) receptor,19%
same,Inhibition rate of compound A for radioligand (%),D2 receptor,21%
same,inhibition at 10 µM,β2 receptor,5%
same,Inhibition rate of compound A for radioligand (%),[5],2%
same,Inhibition rate of compound A for radioligand (%),GABAA receptor,−8%
same,Inhibition rate of compound A for radioligand (%),BZD (central) receptor,25%
same,Ki,[6],16 nM
same,Inhibition rate of compound A for radioligand (%),NMDA receptor,16%
same,Inhibition rate of compound A for radioligand (%),[7],40%
same,Inhibition rate of compound A for radioligand (%),TRH receptor,1%
same,inhibition at 10 µM,M1 receptor,43%
same,Inhibition rate of compound A for radioligand (%),D1 receptor,1%

# Reference: patent US10238632B2, “Sigma receptor-binding agent” (FUJIFILM Toyama Chemical Co., Ltd., priority 2015, dated 2019)
